Laboratory results reported in US20090053152A1, “SKIN COSMETIC” (KAO Corporation, priority 2006, published 2009).
≈ marks a conversion by molar mass, not a printed value. Read-outs that look alike come from different tables or passages of the source.

Legend:
B16 melanoma cells = test: Melanogenesis inhibition test; format: cell-based; conditions: for IC50: Mus musculus; for Melanogenesis inhibition rate (%, vs control): 72 hours culture, melanin per protein
Procedure: B16 melanoma cells were plated at 10^4 cells/well in a MEM medium containing 10 vol % fetal bovine serum in a 12-well plate and were precultured for 24 hours. After the preculture, the medium was replaced with a medium obtained by adding a predetermined concentration of the sample compound to the above medium to which is added 2 mmol/L of theophylline, and culture was carried out for 72 hours. […] Further, the cells were dissolved in a 1 mol/L aqueous sodium hydroxide solution containing 10 vol % dimethyl sulfoxide. The OD475 was measured and the value was used as an indicator of the amount of melanin. Thereafter, the amount of total protein in the solution was determined using Coomasie Plus Protein Assay Reagent Kit (manufactured by PIERCE) to calculate the amount of melanin per amount of protein. The melanogenesis inhibition rate (%) relative to a control was determined with a case where the sample compound was not added as the control.
Melanogenesis inhibition curves of the monoacetyl and diacetyl derivatives of propylbiphenol of Preparation Example 1 according to the present invention were made based on the results of the melanogenesis inhibition test (FIGS. 6 and 7). IC50 values, which is the concentration values supposed to inhibit 50% of melanogenesis, were determined from the inhibition curves.

[1] = Solubility test in water or organic solvent; format: physicochemical; conditions: room temperature, visually observed; for Solubility in Ethyl acetate: 0.1 g sample in 1 ml ethyl acetate; for solubility: thermodynamic from solid
Procedure: 0.1 g of each sample was weighed and 1 ml of water or an organic solvent was accurately added thereto. After agitating the mixture with a test tube mixer (VORTEX), it was allowed to stand at room temperature and the state was visually observed. Solubility was evaluated as “o”, when a sample was completely dissolved. Solubility was evaluated as “Δ”, when a sample was approximately half dissolved. Solubility was evaluated as “x”, when a sample was almost not dissolved. Propylbiphenol that was a starting material for each Preparation Example was also evaluated as Comparative Example 1.

[2] = B16, determined from melanogenesis inhibition curves, read-out: IC50 value (concentration supposed to inhibit 50% of melanogenesis)
[3] = 0.1 g sample in 1 ml water, read-out: Solubility in Water
[4] = addition concentration 10 μg/ml

SMILES | IC50 (B16 melanoma cells; [2]) | Solubility in Ethyl acetate [1] | Solubility in Methanol ([1]; 0.1 g sample in 1 ml methanol) | Solubility in n-hexane ([1]; 0.1 g sample in 1 ml n-hexane) | solubility [1, 3] | Melanogenesis inhibition rate (%, vs control) (B16 melanoma cells; addition concentration 1 μg/ml) | Melanogenesis inhibition rate (%, vs control) (B16 melanoma cells; addition concentration 3 μg/ml) | Melanogenesis inhibition rate (%, vs control) (B16 melanoma cells; [4]) | Melanogenesis inhibition rate (%, vs control) (B16 melanoma cells; addition concentration 30 μg/ml) | solubility ([1]; organic solvent or mixture, 0.1 g sample in 1 ml methanol, read-out: Solubility in Methanol) | solubility ([1]; organic solvent or mixture, 0.1 g sample in 1 ml n-hexane, read-out: Solubility in n-hexane) | IC50 (B16 melanoma cells; B16, read-out: IC50 value (concentration supposed to inhibit 50% of melanogenesis))
OC[C@H]1O[C@@H](Oc2ccc(O)cc2)[C@H](O)[C@@H](O)[C@@H]1O [arbutin, reference compound] | 20 µg/mL (≈ 0.0735 mM) |  |  |  |  |  |  |  |  |  |  | 
CCCc1ccc(OC(C)=O)c(-c2cc(CCC)ccc2OC(C)=O)c1 [Diacetyl derivative] | 6.5 µg/mL (≈ 0.0183 mM) | ∘ | ∘ | ∘ | < 25 mg/mL | −15.5% | −16.6% | 72.0% | 83.8% |  |  | 
CCCCCCCC(=O)Oc1ccc(CCC)cc1-c1cc(CCC)ccc1O [Monooctanoyl derivative] |  | ∘ | ∘ | ∘ | < 25 mg/mL |  |  |  |  |  |  | 
CCCc1ccc(O)c(-c2cc(CCC)ccc2OC(C)=O)c1 [Monoacetyl derivative] | 7 µg/mL (≈ 0.0224 mM) | ∘ | ∘ | ∘ | < 25 mg/mL | −11.6% | −9.8% | 100% |  |  |  | 
CCCc1ccc(OC(=O)CC)c(-c2cc(CCC)ccc2OC(=O)CC)c1 [Dipropionyl derivative] |  | ∘ | ∘ | ∘ | < 25 mg/mL |  |  |  |  |  |  | 
CCCc1ccc(O)c(-c2cc(CCC)ccc2O)c1 [Propylbiphenol, 2,2′-dihydroxy-5,5′-di-n-propyl-biphenyl, reference compound] |  | ∘ |  |  | < 25 mg/mL |  |  |  |  | 25 to 100 mg/mL (≈ 92.5 to 370 mM) | < 25 mg/mL | 4 µg/mL (≈ 0.0148 mM)
